In patent publication US20250057994A1, “LABELED COMPOUNDS AND CALCIUM SENSING RECEPTOR LIGANDS FOR IMAGING AND USES THEREOF” (The University of North Carolina at Chapel Hill, priority 2021, published 2025):

Columns and labels:
CSR = molecular target: T1, CSR (Homo sapiens, UniProt P41180); test: Cell uptake and specific blocking assays in Hcc827 cells; conditions: blocker 100 μM
T1 sequence (P41180 20-1078): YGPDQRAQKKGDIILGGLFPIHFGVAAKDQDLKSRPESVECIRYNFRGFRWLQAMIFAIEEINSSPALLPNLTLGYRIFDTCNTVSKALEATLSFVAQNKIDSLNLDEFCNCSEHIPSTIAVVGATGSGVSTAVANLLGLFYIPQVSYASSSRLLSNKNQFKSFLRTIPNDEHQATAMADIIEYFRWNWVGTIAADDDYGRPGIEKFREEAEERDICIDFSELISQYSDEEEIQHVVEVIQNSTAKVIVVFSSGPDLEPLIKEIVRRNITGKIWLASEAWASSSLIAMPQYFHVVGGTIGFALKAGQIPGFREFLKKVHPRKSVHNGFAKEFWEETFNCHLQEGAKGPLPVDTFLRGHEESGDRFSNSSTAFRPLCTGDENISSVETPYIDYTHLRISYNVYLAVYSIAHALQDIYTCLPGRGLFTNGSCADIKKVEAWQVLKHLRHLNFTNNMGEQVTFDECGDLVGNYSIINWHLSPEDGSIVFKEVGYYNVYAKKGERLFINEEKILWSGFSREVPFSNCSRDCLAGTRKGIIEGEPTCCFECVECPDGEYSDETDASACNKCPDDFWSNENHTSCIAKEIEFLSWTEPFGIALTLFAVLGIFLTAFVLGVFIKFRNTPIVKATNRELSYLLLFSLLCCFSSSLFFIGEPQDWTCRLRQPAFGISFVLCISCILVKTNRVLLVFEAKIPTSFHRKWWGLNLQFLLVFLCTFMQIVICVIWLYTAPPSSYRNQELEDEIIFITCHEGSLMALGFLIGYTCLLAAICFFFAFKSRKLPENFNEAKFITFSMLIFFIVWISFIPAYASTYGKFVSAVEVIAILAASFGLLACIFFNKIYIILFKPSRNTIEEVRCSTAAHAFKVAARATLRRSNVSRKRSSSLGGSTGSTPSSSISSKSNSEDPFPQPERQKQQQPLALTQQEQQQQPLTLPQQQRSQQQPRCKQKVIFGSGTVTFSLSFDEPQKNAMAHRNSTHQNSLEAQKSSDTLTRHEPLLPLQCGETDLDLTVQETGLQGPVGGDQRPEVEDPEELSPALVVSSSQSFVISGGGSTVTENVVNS

[1] = In vivo acute toxicity study with overdose of cold standard; parameters: species or system JAX Swiss Outbred mice; conditions: for ALP (alkaline phosphatase) / ALT (alanine aminotransferase) / AST (aminotransferase) / BUN (blood urea nitrogen) / creatinine: mice plasma
Description: In vivo Toxicity study. An In vivo acute toxicity study of [^19F]F-cinacalcet was carried out in JAX Swiss Outbred mice. The mice were injected intravenously with an overdose of cold standard [^19F]F-cinacalcet (57.6 μg, ˜1000 times greater than the radiotracer [^18F]F-cinacalcet dose). Plasma samples were collected and analyzed at various time points. […] Alkaline phosphatase (ALP) and alanine transaminase (ALT) are two important biological indicators associated with liver function. […] It is very common to see a transient increase in blood AST after drug administration, which usually has no actual pathological significance. Blood urea nitrogen (BUN) and creatinine are two critical indicators for evaluating kidney function. There were no significant changes in BUN and creatinine levels in the mice injected with [^19F]F-cinacalcet compared with the vehicle controls. In addition, histopathological staining was performed on the kidney, liver, and heart tissues collected at different time points. […] The basic structures of the glomerulus, renal tubulus, liver lobule central vein, and cardiac muscle fibers remained intact.

C[C@@H](NCCCc1cccc(C(F)(F)F)c1)c1ccc(F)c2ccccc12 [[^19F]F-ZW-cinacalcet]
Block of [18F]F-ZW-cinacalcet uptake (CSR; 20 min post incubation): 89.9% | Block of [18F]F-ZW-cinacalcet uptake (CSR; other time points): More than 87% | ALP (alkaline phosphatase) ([1]; 2 weeks after overdose): 80.33 ± 9.00 U/L | ALT (alanine aminotransferase) ([1]; 2 weeks after overdose): 24.67 ± 0.94 U/L | AST (aminotransferase) ([1]; 2 weeks after overdose): 82 ± 28.6 U/L | BUN (blood urea nitrogen) ([1]; 2 weeks after overdose): 18 ± 0.82 mg/dL | creatinine ([1]; 2 weeks after overdose): 0.18 ± 0.01 mg/dL | ALP (alkaline phosphatase) ([1]; 1 h after overdose): 87.67 ± 13.70 U/L | ALT (alanine aminotransferase) ([1]; 1 h after overdose): 29.33 ± 3.10 U/L | AST (aminotransferase) ([1]; 1 h after overdose): 82.67 ± 21.68 U/L | BUN (blood urea nitrogen) ([1]; 1 h after overdose): 17 ± 1.41 mg/dL | creatinine ([1]; 1 h after overdose): 0.24 ± 0.09 mg/dL | ALP (alkaline phosphatase) ([1]; 24 h after overdose): 54 ± 9.09 U/L | ALT (alanine aminotransferase) ([1]; 24 h after overdose): 31.33 ± 9.10 U/L | AST (aminotransferase) ([1]; 24 h after overdose): 104.67 ± 45.38 U/L | BUN (blood urea nitrogen) ([1]; 24 h after overdose): 18.33 ± 1.25 mg/dL | creatinine ([1]; 24 h after overdose): 0.25 ± 0.11 mg/dL | Acute toxicity ([1]; mice, i.v. overdose 57.6 μg): no acute toxicity | Mortality and health changes ([1]; mice, i.v. overdose 57.6 μg, study period): No animal deaths and significant health changes were observed | Histopathology of kidney, liver and heart (HE staining) ([1]; mice, i.v. overdose, different time points): no obvious pathological changes
